Experimental data published in patent publication US11897867B2, “6-phenyl-4,5-dihydropyridazin-3(2H)-one derivatives as PDE3A and PDE3B inhibitors for treating cancer” (Bayer Aktiengesellschaft, priority 2017, dated 2024).

Key:
[1] = target: T1, human full length PDE3B (Homo sapiens, UniProt Q13370); test: PDE3B enzyme inhibition (3H-cAMP Scintillation Proximity Assay); type: biochemical; settings: PDE3B cell extract from Sf9 cells, 60 min room temperature; read-out: Target IC50 PDE3B IC50
T1 construct: Sf9 cells overexpressing human full length PDE3B; purchased SB Drug Discovery, UK; host or cells: Sf9 cells (cell extract)
Experimental: The commercially available 3H-cAMP Scintillation Proximity Assay (SPA, Perkin Elmer) system was used for enzyme inhibition studies. For the determination of the in vitro effect of test substances on the PDE3B reactions 2 μl of the respective test compound solution in DMSO (serial dilutions) were placed in wells of microtiter plates (Isoplate-96/200W; Perkin Elmer). 50 μl of a dilution of PDE3B cell extract from Sf9 cells overexpressing human full length PDE3B (SB Drug Discovery, UK) in buffer A (50 mM Tris/HCl pH 7.5, 8.3 mM MgCl2, 1.7 mM EDTA, 0.2% BSA) was added. The dilution of the PDE3B cell extract was chosen such that the reaction kinetics was linear and less than 70% of the substrate was consumed (typical dilution 1:6000). The reaction was started by addition of 50 μl (0.025 μCi) of 1:2000 in buffer A w/o BSA diluted substrate [8-3H] adenosine 3′,5′-cyclic phosphate (1 μCi/μl; Perkin Elmer). After incubation at room temperature for 60 min, the reaction was stopped by addition of 25 μl of a suspension containing 18 mg/ml yttrium scintillation proximity beads (Perkin Elmer) in water. The microtiter plates were sealed and measured in a Microbeta scintillation counter (PerkinElmer Wallac). IC50 values were determined from sigmoidal curves by plotting percentage PDE3B activity vs log compound concentration.

[2] = test system: SK-MEL-3 (melanoma); test: Cell proliferation measurement (Cell Titer Glo), SK-MEL-3; type: cell-based; settings: Homo sapiens, SK-MEL3, SK-MEL-3 cells, 72 h treatment, read-out: Anti-proliferation IC50 SK-MEL-3 (melanoma)
Experimental: (§1) The antiproliferative activity of the compounds of the general formula (I) was examined in vitro in human cancer cells. For this purpose, 1000 cells (or 500 HeLa cells) were plated in 384-well plates with appropriate growth medium and incubated at 37° C. overnight. After 24 h, the cells on the test plate were treated with the compounds of the general formula (I) as and incubated at 37° C. for 72 h. The compounds were added to the cells by means of an HP D300 digital dispenser in a 10 (or more)-step dilution series. As control, the cells were treated with vehicle (DMSO at 0.3% final concentration). After 72 h, the cells were treated with 20 μl/well of 50% CTG solution in PBS (Promega Cell Titer Glo (catalogue #G755B and G756B)) and incubated at room temperature for 10 min, and luminescence was measured by means of a VICTOR V (Perkin Elmer), in order to determine cell viability at the end of treatment. The percentage effect on cell growth and the IC50 derived therefrom were determined for each test substance using the values from untreated wells (=percent viability). The IC50 values were calculated using a 4-parameter fit.

[3] = target: T2, human full length PDE3A (Homo sapiens, UniProt Q14432); test: PDE3A enzyme inhibition (3H-cAMP Scintillation Proximity Assay); type: biochemical; settings: PDE3A cell extract from Sf9 cells, 60 min room temperature; read-out: Target IC50 PDE3A IC50
T2 construct: Sf9 cells overexpressing human full length PDE3A; purchased SB Drug Discovery, UK; host or cells: Sf9 cells (cell extract)
Experimental: The commercially available 3H-cAMP Scintillation Proximity Assay (SPA, Perkin Elmer) system was used for enzyme inhibition studies. For the determination of the in vitro effect of test substances on the PDE3A reactions 2 μl of the respective test compound solution in DMSO (serial dilutions) were is placed in wells of microtiter plates (Isoplate-96/200W; Perkin Elmer). 50 μl of a dilution of PDE3A cell extract from Sf9 cells overexpressing human full length PDE3A (SB Drug Discovery, UK) in buffer A (50 mM Tris/HCl pH 7.5, 8.3 mM MgCl2, 1.7 mM EDTA, 0.2% BSA) was added. The dilution of the PDE3A cell extract was chosen such that the reaction kinetics was linear and less than 70% of the substrate was consumed (typical dilution 1:5000). The reaction was started by addition of 50 μl (0.025 μCi) of 1:2000 in buffer A w/o BSA diluted substrate [8-3H] adenosine 3′,5′-cyclic phosphate (1 μCi/μl; Perkin Elmer). After incubation at room temperature for 60 min, the reaction was stopped by addition of 25 μl of a suspension containing 18 mg/ml yttrium scintillation proximity beads (Perkin Elmer) in water. The microtiter plates were sealed and measured in a Microbeta scintillation counter (PerkinElmer Wallac). IC50 values were determined from sigmoidal curves by plotting percentage PDE3A activity vs log compound concentration.

[4] = test system: HeLa cells (cervical cancer); test: Cell proliferation measurement (Cell Titer Glo), HeLa; type: cell-based; settings: Homo sapiens, 72 h treatment, read-out: Anti-proliferation IC50 HeLa (Cervical cancer)
Experimental: as §1

T1 sequence (Q13370 whole entry): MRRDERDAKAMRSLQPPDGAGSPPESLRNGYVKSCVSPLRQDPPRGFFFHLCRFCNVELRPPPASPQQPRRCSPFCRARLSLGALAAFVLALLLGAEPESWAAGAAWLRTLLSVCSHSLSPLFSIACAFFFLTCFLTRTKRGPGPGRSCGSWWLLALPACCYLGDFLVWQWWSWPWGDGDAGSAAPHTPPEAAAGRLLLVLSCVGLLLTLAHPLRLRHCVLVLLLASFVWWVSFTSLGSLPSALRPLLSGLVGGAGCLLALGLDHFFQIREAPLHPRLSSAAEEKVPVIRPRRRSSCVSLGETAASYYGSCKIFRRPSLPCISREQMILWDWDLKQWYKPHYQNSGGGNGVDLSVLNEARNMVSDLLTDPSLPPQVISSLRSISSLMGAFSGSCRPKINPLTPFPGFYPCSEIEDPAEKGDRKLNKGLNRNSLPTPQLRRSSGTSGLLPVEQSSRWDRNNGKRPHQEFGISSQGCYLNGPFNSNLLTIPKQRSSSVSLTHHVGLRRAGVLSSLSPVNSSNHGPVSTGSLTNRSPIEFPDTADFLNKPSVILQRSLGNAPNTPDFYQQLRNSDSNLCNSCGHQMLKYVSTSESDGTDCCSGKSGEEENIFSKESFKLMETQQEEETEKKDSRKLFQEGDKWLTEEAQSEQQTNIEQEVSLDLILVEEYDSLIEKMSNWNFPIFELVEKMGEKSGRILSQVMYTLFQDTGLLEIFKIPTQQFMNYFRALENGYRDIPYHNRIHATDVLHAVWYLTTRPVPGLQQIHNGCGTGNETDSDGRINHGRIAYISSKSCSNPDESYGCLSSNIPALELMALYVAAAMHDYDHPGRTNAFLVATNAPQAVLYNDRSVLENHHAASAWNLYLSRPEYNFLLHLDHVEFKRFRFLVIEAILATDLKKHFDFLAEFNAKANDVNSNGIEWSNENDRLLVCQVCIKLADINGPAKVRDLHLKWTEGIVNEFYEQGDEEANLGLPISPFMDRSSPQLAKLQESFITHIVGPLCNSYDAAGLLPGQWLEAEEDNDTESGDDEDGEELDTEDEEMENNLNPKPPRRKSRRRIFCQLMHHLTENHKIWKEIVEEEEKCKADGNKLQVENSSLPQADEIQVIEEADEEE
T2 sequence (Q14432 whole entry): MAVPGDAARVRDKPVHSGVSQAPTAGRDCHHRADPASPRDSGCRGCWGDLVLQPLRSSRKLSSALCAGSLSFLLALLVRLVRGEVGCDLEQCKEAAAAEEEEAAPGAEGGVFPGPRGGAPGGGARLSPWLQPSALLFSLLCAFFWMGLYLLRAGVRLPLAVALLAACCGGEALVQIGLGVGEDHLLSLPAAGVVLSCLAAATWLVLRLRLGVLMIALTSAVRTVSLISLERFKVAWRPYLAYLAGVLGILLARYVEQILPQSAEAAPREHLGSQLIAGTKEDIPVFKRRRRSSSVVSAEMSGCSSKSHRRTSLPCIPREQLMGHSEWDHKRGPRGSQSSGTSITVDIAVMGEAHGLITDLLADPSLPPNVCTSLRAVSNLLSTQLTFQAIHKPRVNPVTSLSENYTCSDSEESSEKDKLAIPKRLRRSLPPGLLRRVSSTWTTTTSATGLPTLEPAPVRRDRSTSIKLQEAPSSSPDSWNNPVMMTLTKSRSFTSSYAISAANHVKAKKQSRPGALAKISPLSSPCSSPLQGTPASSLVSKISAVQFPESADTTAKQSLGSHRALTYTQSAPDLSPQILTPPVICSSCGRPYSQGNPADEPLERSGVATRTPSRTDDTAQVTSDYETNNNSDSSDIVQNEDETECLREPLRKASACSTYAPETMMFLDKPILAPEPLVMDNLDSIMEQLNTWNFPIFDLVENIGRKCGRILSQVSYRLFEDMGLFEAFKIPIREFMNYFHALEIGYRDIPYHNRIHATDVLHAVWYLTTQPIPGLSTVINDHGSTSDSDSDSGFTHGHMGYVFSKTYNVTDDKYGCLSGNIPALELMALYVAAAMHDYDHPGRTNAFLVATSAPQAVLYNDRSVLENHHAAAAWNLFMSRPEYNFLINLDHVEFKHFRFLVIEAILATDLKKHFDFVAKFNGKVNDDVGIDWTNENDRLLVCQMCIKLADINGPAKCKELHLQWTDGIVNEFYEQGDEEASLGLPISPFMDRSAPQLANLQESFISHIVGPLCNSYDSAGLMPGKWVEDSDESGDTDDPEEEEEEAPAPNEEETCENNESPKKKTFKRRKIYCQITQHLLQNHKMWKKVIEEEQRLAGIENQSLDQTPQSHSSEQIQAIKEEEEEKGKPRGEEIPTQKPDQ

SMILES	IC50 [1]	IC50 [2]	IC50 [3]	IC50 [4]
N#Cc1ccc(F)c(-c2ccc(C3=NNC(=O)CC3)cc2F)c1 [Example 89, 2′,6-difluoro-4′-(6-oxo-1,4,5,6-tetrahydropyridazin-3-yl)[1,1′-biphenyl]-3-carbonitrile]	0.15 µM	> 0.1 µM	0.14 µM	0.0743 µM
N#Cc1cccc(-c2ccc(C3=NNC(=O)CC3)cc2F)c1 [Example 47, 2′-fluoro-4′-(6-oxo-1,4,5,6-tetrahydropyridazin-3-yl)[1,1′-biphenyl]-3-carbonitrile]	0.096 µM	0.0193 µM	0.095 µM	0.0137 µM
O=C1CCC(c2ccc(-c3ccc(F)c(F)c3F)c(F)c2)=NN1 [Example 39, 6-(2,2′,3′,4′-tetrafluoro[1,1′-biphenyl]-4-yl)-4,5-dihydropyridazin-3(2H)-one]	0.08 µM	0.0084 µM	0.082 µM	0.00525 µM
O=C1CCC(c2ccc(-c3ccccc3F)c(F)c2)=NN1 [Example 60, 6-(2,2′-difluoro[1,1′-biphenyl]-4-yl)-4,5-dihydropyridazin-3(2H)-one]	0.047 µM	0.0042 µM	0.096 µM	0.00208 µM
Cc1cc(F)ccc1-c1ccc(C2=NNC(=O)CC2)cc1 [Example 26, 6-(4′-Fluoro-2′-methylbiphenyl-4-yl)-4,5-dihydropyridazin-3(2H)-one]	0.09 µM	0.0036 µM	0.093 µM	0.00202 µM
O=C1CCC(c2ccc(N3CC(F)(F)C3)c(C(F)(F)F)c2)=NN1 [Example 19, 6-[4-(3,3-Difluoroazetidin-1-yl)-3-(trifluoromethyl)phenyl]-4,5-dihydropyridazin-3(2H)-one]	0.21 µM	0.0104 µM	0.21 µM	0.00576 µM
Cc1ccc(-c2ccc(C3=NNC(=O)CC3)cc2F)cc1N [Example 48, 6-(3′-amino-2-fluoro-4′-methyl[1,1′-biphenyl]-4-yl)-4,5-dihydropyridazin-3(2H)-one]	0.26 µM	0.0209 µM	0.23 µM	0.0131 µM
COc1ccc(-c2ccc(C3=NNC(=O)CC3)cc2F)cc1 [Example 86, 6-(2-fluoro-4′-methoxy[1,1′-biphenyl]-4-yl)-4,5-dihydropyridazin-3(2H)-one]	0.31 µM	0.0598 µM	0.28 µM	0.0106 µM
Cc1cc(C2=NNC(=O)CC2)ccc1-c1ccccc1C#N [Example 99, 2′-methyl-4′-(6-oxo-1,4,5,6-tetrahydropyridazin-3-yl)[1,1′-biphenyl]-2-carbonitrile]	0.53 µM	> 0.1 µM	0.28 µM	0.0399 µM
Cc1cnccc1-c1ccc(C2=NNC(=O)CC2)cc1F [Example 73, 6-[3-fluoro-4-(3-methylpyridin-4-yl)phenyl]-4,5-dihydropyridazin-3(2H)-one]	0.039 µM	0.0154 µM	0.052 µM	0.00952 µM
N#Cc1cc(C2=NNC(=O)CC2)ccc1N1CCOCC1 [Example 15, 2-(Morpholin-4-yl)-5-(6-oxo-1,4,5,6-tetrahydropyridazin-3-yl)benzonitrile]	0.077 µM	0.0695 µM	0.11 µM	0.0448 µM
CC1CCCN1c1ccc(C2=NNC(=O)CC2)cc1C(F)(F)F (stereo not drawn) [Example 20, 6-{4-[2-Methylpyrrolidin-1-yl]-3-(trifluoromethyl)phenyl}-4,5-dihydropyridazin-3(2H)-one]	0.16 µM	0.0477 µM	0.22 µM	0.0335 µM
COc1cccc(-c2ccc(C3=NNC(=O)CC3)cc2C)c1 [Example 113, 6-(3′-methoxy-2-methyl[1,1′-biphenyl]-4-yl)-4,5-dihydropyridazin-3(2H)-one]	0.091 µM	> 0.1 µM	0.088 µM	0.033 µM
Cc1ccc(F)c(-c2ccc(C3=NNC(=O)CC3)cc2F)c1 [Example 68, 6-(2,2′-difluoro-5′-methyl[1,1′-biphenyl]-4-yl)-4,5-dihydropyridazin-3(2H)-one]	0.1 µM	0.0712 µM	0.16 µM	0.0363 µM

Second part, the molecule after the results:

IC50 [1]	IC50 [2]	IC50 [3]	IC50 [4]	SMILES
0.15 µM	0.0141 µM	0.15 µM	0.00563 µM	Cc1cc(C2=NNC(=O)CC2)ccc1-c1ccccc1F [Example 109, 6-(2′-fluoro-2-methyl[1,1′-biphenyl]-4-yl)-4,5-dihydropyridazin-3(2H)-one]
0.71 µM	0.0703 µM	0.66 µM	0.0414 µM	Cc1cc(C2=NNC(=O)CC2)ccc1Cl [Example 11, 6-(4-Chloro-3-methylphenyl)-4,5-dihydropyridazin-3(2H)-one]
0.21 µM	0.0178 µM	0.16 µM	0.00654 µM	Cc1cc(C2=NNC(=O)CC2)ccc1-c1ccc(Cl)c(N)c1 [Example 108, 6-(3′-amino-4′-chloro-2-methyl[1,1′-biphenyl]-4-yl)-4,5-dihydropyridazin-3(2H)-one]
0.2 µM	> 0.1 µM	0.17 µM	0.0368 µM	Cc1cc(C2=NNC(=O)CC2)ccc1-c1cccc(N)c1 [Example 103, 6-(3′-amino-2-methyl[1,1′-biphenyl]-4-yl)-4,5-dihydropyridazin-3(2H)-one]
0.073 µM	> 0.1 µM	0.057 µM	0.0519 µM	Cc1cc(C2=NNC(=O)CC2)ccc1-c1cnc(N)nc1 [Example 91, 6-[4-(2-aminopyrimidin-5-yl)-3-methylphenyl]-4,5-dihydropyridazin-3(2H)-one]
0.1 µM	0.0214 µM	0.11 µM	0.00479 µM	Cc1cc(C2=NNC(=O)CC2)ccc1-c1ccc(F)cc1F [Example 106, 6-(2′,4′-difluoro-2-methyl[1,1′-biphenyl]-4-yl)-4,5-dihydropyridazin-3(2H)-one]
0.17 µM	0.0429 µM	0.22 µM	0.00839 µM	Cc1ccccc1-c1ccc(C2=NNC(=O)CC2)cc1C [Example 116, 6-(2,2′-dimethyl[1,1′-biphenyl]-4-yl)-4,5-dihydropyridazin-3(2H)-one]
0.11 µM	0.0582 µM	0.14 µM	0.0139 µM	Cc1cc(C2=NNC(=O)CC2)ccc1-c1cccc(F)c1 [Example 112, 6-(3′-fluoro-2-methyl[1,1′-biphenyl]-4-yl)-4,5-dihydropyridazin-3(2H)-one]
0.23 µM	0.0336 µM	0.23 µM	0.00715 µM	Cc1ccc(-c2ccc(C3=NNC(=O)CC3)cc2C)cc1 [Example 121, 6-(2,4′-dimethyl[1,1′-biphenyl]-4-yl)-4,5-dihydropyridazin-3(2H)-one]
0.2 µM	> 0.1 µM	0.2 µM	0.0276 µM	Cc1cc(C2=NNC(=O)CC2)ccc1-c1cc(F)cc(F)c1 [Example 105, 6-(3′,5′-difluoro-2-methyl[1,1′-biphenyl]-4-yl)-4,5-dihydropyridazin-3(2H)-one]
